Experiment: Human HepG2 cell viability assay in 384 well format
Assay type: toxicity, cell-based
Design: dose 125 nL, time 70.5 hour; cytotoxicity at 70.5 h: concentration not given beside the values
Details: HepG2 cells, read-out: Inhibition

Structure (SMILES) | cytotoxicity at 70.5 h
CC(C)Oc1cccc(C(=O)C2CCCN(S(=O)(=O)C(C)C)C2)c1 (stereo not drawn) | -7.26%
CCOC(=O)N1CCN(c2nc(CCN)nc3sc(C)c(C)c23)CC1 | 1.12%
COc1ccc(C)cc1C(=O)N1C[C@@H](CN(C)CCO)[C@@H](CO)C1 | 0.0463%
NC(=O)[C@@H]1CCCN1C(=O)c1csc(-c2ccc(C(F)(F)F)cc2)n1 | 20.6%
CN(Cc1cc(-c2ccncc2)no1)C(=O)[C@@H]1CSCN1C | -13.1%
Cc1cc(N2CCN(C3CCSCC3)CC2)n2nc(C)c(C)c2n1 | -5.2%
CC(=O)N1CCc2c(nc(N(C)C)nc2NCCCn2ccnc2)C1 | -8.48%
CCc1nc(C)c(C2CC(=O)Nc3c2c(-c2cccnc2)nn3C)[nH]1 (stereo not drawn) | -5.87%
O=C(c1ccccc1)N1C[C@@H]2CC[C@H](C1)N(C(=O)CN1CCOCC1)C2 | 3.79%
N[C@@H]1CC[C@@H]1NC(=O)c1ccccc1OC(F)(F)C(F)F | 3.75%
Cc1nnc(CN2C[C@H](NC(=O)CC3CCCC3)[C@@H](C3CC3)C2)s1 | -7.74%
Cn1ccnc1C(=O)N1CCC(Cn2cc(-c3ccsc3)nn2)CC1 | -8.29%
CCCOC1CCCN(C(=O)c2ccnnc2)C1 (stereo not drawn) | -2.27%
CC(C)c1nc(CN(C)C(=O)CCNC(=O)c2ccccc2F)no1 | 19.8%
CC(=O)N1CCN(Cc2ccc(Cl)c(F)c2)CC(O)C1 (stereo not drawn) | 17.8%
O=S1(=O)COCCN1CCOc1ccc(F)cc1 | -5.2%
Cc1noc(C)c1-c1n[nH]c2c1CN(S(=O)(=O)c1cccs1)CC2 | 0.699%
c1ccc(CCn2cc(-c3nc(CN4CCOCC4)no3)nn2)cc1 | -6.91%
O=C(Cn1nc2ccccc2n1)N1CCCC(O)(CO)C1 (stereo not drawn) | 6.64%
CN(C)C(=O)c1ccc(C(C(=O)O)N(C)Cc2ccccc2Cl)cc1 (stereo not drawn) | -8.81%
Nc1cc(C(=O)NC2CCCN(CCCc3ccccc3)C2)ccn1 (stereo not drawn) | 12.3%
Cc1nccc(-c2ccccc2)c1C(=O)N1CC[C@](C)(O)[C@H](C)C1 | 13.7%
O=C(c1ccc(CNC2CCSC2)cc1)N1CCCC1 (stereo not drawn) | -0.303%

Structure (SMILES) | cytotoxicity at 70.5 h
CCN(C)C[C@@H]1CN(S(=O)(=O)c2cccc(Cl)c2)C[C@@H]1CO | 2.35%
CCCc1nc(C(=O)N(C)Cc2cc(CC)no2)cs1 | 0.552%
O=C(c1ncc[nH]1)N1CCC(n2cc(-c3cccc(Cl)c3)nn2)CC1 | 8.61%
CNC(=O)[C@@H]1C[C@@H](N)CN1C1CCN(c2ccccc2F)CC1 | -7.57%
Cc1n[nH]c(C)c1-c1cc(-c2ccc[nH]2)nc(N)c1C#N | -10.2%
CCC(Nc1nc(C(C)C)nc2c1cnn2C)c1ccncc1 (stereo not drawn) | -7.7%
Cc1nn(C)c2nc(NCCOCCO)sc12 | -4.46%
Cc1cccc(N2CCC3(CCCN3Cc3cnn(C)c3C)CC2)n1 | 2.08%
CC(=O)c1c(C)nn(CC(=O)N2CCCC2c2ccc(C(N)=O)s2)c1C (stereo not drawn) | -2.76%
O=C(O)c1cn(CC2CCCN(c3ccc4ccccc4n3)C2)nn1 (stereo not drawn) | -10.4%
COC(=O)CCC(=O)N1CCc2[nH]nc(-c3ccc4c(c3)OCO4)c2C1 | -3.99%
CN(C)C(C(=O)N1CCCC1)c1ccccc1F (stereo not drawn) | -1.96%
CCn1c(CN(C)C)nnc1C1CCN(Cc2ccccc2)CC1 | -10.3%
O=C1[C@H]2CC[C@H](CN(S(=O)(=O)c3ccccc3)C2)N1Cc1cscn1 | 8.27%
CC(C)Oc1cc(N2CCC(N3CCC(O)CC3)CC2)nc(N)n1 | -7.04%
Cc1ccc(C(NC(=O)CC2CCN(C(C)C)CC2)C(=O)O)cc1 (stereo not drawn) | -3.16%
Cc1nn(C)cc1CNC(=O)c1cn(CCC2CCCCN2)nn1 (stereo not drawn) | -8.92%
Cc1ncsc1CCC(=O)N1CCCC[C@H](N(C)C)C1 | 16.9%
NC(=O)c1cccc(CC2CCN(C(=O)CO)C2)c1 (stereo not drawn) | -3%
CCCNC(=O)N1CCC(Oc2cc(C)ccc2F)(C(=O)O)CC1 | 10.3%
CCCN1CCCn2nc(CNC(=O)CCc3scnc3C)cc2C1 | -1.73%
O=C1CCC2(CCN(Cc3cc(F)ccc3Cl)CC2)CN1C1CCCC1 | 3.22%
COCCN1CCN(C(=O)c2cc(C(C)C)on2)[C@H]2CS(=O)(=O)C[C@H]21 | 2.11%

Structure (SMILES) | cytotoxicity at 70.5 h
CCNC(=O)[C@@H]1C[C@@H](NC(=O)Cc2ccncc2)CN1Cc1ccsc1 | -1.57%
Cc1cc(C[C@@H]2COC[C@@H]2NC(=O)CN2CCCC2)on1 | -0.566%
C[C@@H]1CN(C2(C(=O)N3CCCCCC3)Cc3ccccc3C2)C[C@H](C)O1 | -7.47%
O=C(NC1CC(=O)N(Cc2cccc(F)c2)C1)c1ccncc1 (stereo not drawn) | -8.7%
COCCN1CCC(CN(CC2CCCO2)C(=O)CCNC(C)=O)CC1 (stereo not drawn) | -3.63%
NC(=O)NCCC(=O)NCc1cccnc1N1CCc2ccccc2C1 | -11.6%
COc1cc(N2CCCC(c3nccn3Cc3cscn3)C2)nc(N)n1 (stereo not drawn) | -8.38%
CC(C)CCN1CCNC(=O)C1CC(=O)N1CCc2sccc2C1 (stereo not drawn) | -7.67%
CCCn1c(C)c(CC(=O)N(C)CCOC)c2c1CC(C)(C)CC2=O | -7.09%
COCCN(C)CCN1CC2(CCN(C(=O)C3CCOC3)CC2)OC1=O (stereo not drawn) | 17.4%
CC(C)Nc1ncc(CN2C[C@@H](CN3CCC(O)CC3)[C@@H](CO)C2)cn1 | -3.95%
COc1ccc(-c2nc(CN3CCOCS3(=O)=O)c(C)o2)cc1 | -0.0234%
Cc1nnc(SCC(=O)N2CCC3(CC2)c2ccccc2CC3O)o1 (stereo not drawn) | 20.7%
CC(C)c1noc(CN2CCC3(CCCO3)CCC2=O)n1 (stereo not drawn) | -0.624%
CCSCCNC(=O)C(c1cccc(F)c1)N(C)C (stereo not drawn) | -6.8%
CCC(=O)N1CCc2[nH]cnc2C12CCN(C(=O)c1snnc1C)CC2 | -10.6%
Oc1cc(CCC2CCCCN2)cc(-c2ccncc2)c1 (stereo not drawn) | 17.4%
CC(C)n1ccnc1C1CCCN(c2ccccn2)C1 (stereo not drawn) | -11.1%
CN(Cc1ncc[nH]1)S(=O)(=O)c1cccc(C(=O)N2CCOCC2)c1 | -2.7%
COc1cccc(C(=O)N2CCCC(C(=O)CCc3ccccc3)C2)c1 (stereo not drawn) | -0.206%
N#Cc1cccnc1N1CCC2(CCCN(C3CCOCC3)C2=O)C1 (stereo not drawn) | -3.03%
CCNC(=O)c1ccc(N2CCCC(c3nccn3C(C)C)C2)nc1 (stereo not drawn) | -10.3%
c1ncn(CC2CCCCN2Cc2cn3ccsc3n2)n1 (stereo not drawn) | 5.43%

Structure (SMILES) | cytotoxicity at 70.5 h
CC(C)(C)c1cc(C(=O)NCCN2CCCS2(=O)=O)[nH]n1 | -14.3%
Cc1cccc(C(CNC(=O)NCc2cc[nH]n2)N2CCOCC2)c1 (stereo not drawn) | -14.8%
CC(C)Cc1cc(C(=O)NCCN2CCCS2(=O)=O)[nH]n1 | -10.6%
NC(=O)C(NCc1nn(-c2ccccc2)c2c1CCC2)c1ccccc1 (stereo not drawn) | -10.6%
Cc1cc(CN2CCCCC2Cn2cncn2)no1 (stereo not drawn) | -12.8%
CC(C)c1nc2c(n1C)CCN(Cc1cccc(C(N)=O)c1)C2 | -13.9%
CCn1ccnc1CN1CCN(CC(O)c2ccco2)CC1 (stereo not drawn) | -5.46%
Cc1cc(CN2CCCC2Cn2cccn2)no1 (stereo not drawn) | -10.2%
Cc1cnn(CC2CCCCN2Cc2c(C)noc2C)c1 (stereo not drawn) | -14.5%
CCn1nc2c(cc1=O)CN(Cc1nc(-c3ccco3)no1)CC2 | -10.1%
O=C(NCc1nn(-c2ccccc2)c2c1CCC2)NCC1COCCO1 (stereo not drawn) | -9.01%
CC(C)C(CNC(=O)NCc1cc[nH]n1)N1CCOCC1 (stereo not drawn) | -5.25%
CC(O)CN1CCC(CNCc2ccc(OC(F)(F)F)cc2)CC1 (stereo not drawn) | 5.04%
COc1cccc(CNCC2CCN(CC(C)O)CC2)c1OC (stereo not drawn) | -5.57%
COc1cc(C)nc(N2CCN(C(=O)COC3CCCC3)CC2)n1 | -4.07%
Cc1ccsc1CNC(=O)N1CCC(Cc2cnn(C)c2)C1 (stereo not drawn) | -3.88%
CCc1nccn1C1CCCN(C(=O)COCC(F)(F)F)C1 (stereo not drawn) | -1.33%
Cc1cnn(CC2CCCCN2Cc2cnc(C)s2)c1 (stereo not drawn) | -12.5%
CCCn1nc2c(cc1=O)CN(Cc1nc(-c3ccco3)no1)CC2 | -1.15%
CC(Oc1ccccc1)C(=O)N1CCCN(Cc2cscn2)CC1 (stereo not drawn) | 6.19%
CSCC(=O)N1CCCN(Cc2cscn2)CC1 | -2.64%
COCCN1CCCC1Cn1nc(C)cc1C (stereo not drawn) | 8.46%
CCc1ccc(C(=O)NCc2ccnc(N3CCN(C)CC3)c2)o1 | -7.44%

Structure (SMILES) | cytotoxicity at 70.5 h
Cc1cc(C(=O)NCc2ccnc(N3CCN(C)CC3)c2)sc1C | 20.5%
Cc1ccsc1C(=O)NCc1ccnc(N2CCN(C)CC2)c1 | -8.63%
Cc1cc(C(=O)NCc2ccnc(N3CCN(C)CC3)c2)no1 | -0.337%
CN1CCN(c2cc(CNC(=O)c3cccnc3O)ccn2)CC1 | -1.85%
Cc1nc2cc(=O)[nH]n2c(C)c1CC(=O)NCCCc1ccccc1 | -4.06%
NC(=O)Cn1cc(NC(=O)N2CCCC(O)C2)cn1 (stereo not drawn) | -4.87%
CCCc1noc(C(C)N2CCN(Cc3nc(C)c(C)o3)CC2)n1 (stereo not drawn) | 0.969%
Cc1cc(CNC(=O)Cc2c(C)nc3cc(=O)[nH]n3c2C)no1 | -4.77%
Cc1cnn(CC2CN(CC(=O)Nc3cc(C)on3)CCO2)c1 (stereo not drawn) | -5.06%
CCc1ccc(C(=O)N2CCCN(Cc3nccn3CC)CC2)s1 | 14%
CCC(O)CN1CCN(C(=O)Cc2ccccc2Cl)CC1 (stereo not drawn) | -0.929%
CCn1ccnc1CN1CCCN(C(=O)c2cc[nH]n2)CC1 | 0.0306%
CC(O)CN1CCN(C(=O)Cc2ccccc2Cl)CC1 (stereo not drawn) | -5.1%
CC(C)Cn1cc(NC(=O)N2CCCC2)cn1 | 0.273%
CCc1n[nH]c(C2CN(C(=O)CCc3cscn3)CCO2)n1 (stereo not drawn) | 1.24%
CCc1ocnc1C(=O)N1CCCC(n2nc(C)nc2C)C1 (stereo not drawn) | 5.06%
CC(C)c1n[nH]c(C2CN(C(=O)CCc3cscn3)CCO2)n1 (stereo not drawn) | 13.2%
Cc1cc(C(=O)NCc2ccc(N3CCN(C)CC3)nc2)c(C)s1 | -12.2%
CCn1ccnc1CN1CCCN(C(=O)c2cc(C)nn2CC)CC1 | 3.88%
CCc1noc(C)c1C(=O)N1CCCC(n2nc(C)nc2C)C1 (stereo not drawn) | -2.69%
Cc1cc(C)n(CC2CCCCN2CCc2ccncc2)n1 (stereo not drawn) | 4.66%
